The target in experiment [1] is Hepatocyte growth factor receptor (Homo sapiens, UniProt P08581).
In experiment [2] the target is T1, Cyclin-dependent kinase-like 5 (Homo sapiens, UniProt O76039).
T1 sequence (O76039 whole entry): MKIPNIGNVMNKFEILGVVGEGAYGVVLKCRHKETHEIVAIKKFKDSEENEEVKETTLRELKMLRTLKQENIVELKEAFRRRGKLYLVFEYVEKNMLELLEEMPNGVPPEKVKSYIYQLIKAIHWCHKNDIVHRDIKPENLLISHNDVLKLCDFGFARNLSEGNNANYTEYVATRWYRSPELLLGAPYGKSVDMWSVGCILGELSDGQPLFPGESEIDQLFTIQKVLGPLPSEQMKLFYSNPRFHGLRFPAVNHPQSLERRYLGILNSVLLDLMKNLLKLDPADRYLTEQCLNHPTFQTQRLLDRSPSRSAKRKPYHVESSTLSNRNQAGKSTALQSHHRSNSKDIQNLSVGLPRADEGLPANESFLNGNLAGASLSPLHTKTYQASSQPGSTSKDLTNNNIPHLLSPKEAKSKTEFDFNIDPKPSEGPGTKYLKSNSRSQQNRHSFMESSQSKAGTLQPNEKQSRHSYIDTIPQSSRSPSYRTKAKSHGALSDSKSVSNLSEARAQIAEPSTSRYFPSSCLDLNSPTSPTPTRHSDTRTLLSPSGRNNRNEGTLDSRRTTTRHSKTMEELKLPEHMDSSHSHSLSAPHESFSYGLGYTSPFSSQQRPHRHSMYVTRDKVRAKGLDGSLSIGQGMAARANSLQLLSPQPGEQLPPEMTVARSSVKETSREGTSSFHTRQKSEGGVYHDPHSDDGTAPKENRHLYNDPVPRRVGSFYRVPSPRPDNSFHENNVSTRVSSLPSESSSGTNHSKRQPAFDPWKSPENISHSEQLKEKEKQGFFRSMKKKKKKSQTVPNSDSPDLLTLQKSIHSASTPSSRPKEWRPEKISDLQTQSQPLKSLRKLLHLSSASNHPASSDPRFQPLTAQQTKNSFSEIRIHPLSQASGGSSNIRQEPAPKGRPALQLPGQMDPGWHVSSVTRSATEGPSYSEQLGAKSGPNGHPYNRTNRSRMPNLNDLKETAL

The target of experiment [3] is Serine/threonine-protein kinase ATR (Homo sapiens, UniProt Q13535).
Experiment [4] addresses Dual specificity testis-specific protein kinase 1 (Homo sapiens, UniProt Q15569).
The target of experiment [5] is High affinity nerve growth factor receptor (Homo sapiens, UniProt P04629).
Experiment [6] concerns the target T2, ATP-dependent RNA helicase DHX30 (Homo sapiens, UniProt Q7L2E3).
T2 sequence (Q7L2E3 whole entry): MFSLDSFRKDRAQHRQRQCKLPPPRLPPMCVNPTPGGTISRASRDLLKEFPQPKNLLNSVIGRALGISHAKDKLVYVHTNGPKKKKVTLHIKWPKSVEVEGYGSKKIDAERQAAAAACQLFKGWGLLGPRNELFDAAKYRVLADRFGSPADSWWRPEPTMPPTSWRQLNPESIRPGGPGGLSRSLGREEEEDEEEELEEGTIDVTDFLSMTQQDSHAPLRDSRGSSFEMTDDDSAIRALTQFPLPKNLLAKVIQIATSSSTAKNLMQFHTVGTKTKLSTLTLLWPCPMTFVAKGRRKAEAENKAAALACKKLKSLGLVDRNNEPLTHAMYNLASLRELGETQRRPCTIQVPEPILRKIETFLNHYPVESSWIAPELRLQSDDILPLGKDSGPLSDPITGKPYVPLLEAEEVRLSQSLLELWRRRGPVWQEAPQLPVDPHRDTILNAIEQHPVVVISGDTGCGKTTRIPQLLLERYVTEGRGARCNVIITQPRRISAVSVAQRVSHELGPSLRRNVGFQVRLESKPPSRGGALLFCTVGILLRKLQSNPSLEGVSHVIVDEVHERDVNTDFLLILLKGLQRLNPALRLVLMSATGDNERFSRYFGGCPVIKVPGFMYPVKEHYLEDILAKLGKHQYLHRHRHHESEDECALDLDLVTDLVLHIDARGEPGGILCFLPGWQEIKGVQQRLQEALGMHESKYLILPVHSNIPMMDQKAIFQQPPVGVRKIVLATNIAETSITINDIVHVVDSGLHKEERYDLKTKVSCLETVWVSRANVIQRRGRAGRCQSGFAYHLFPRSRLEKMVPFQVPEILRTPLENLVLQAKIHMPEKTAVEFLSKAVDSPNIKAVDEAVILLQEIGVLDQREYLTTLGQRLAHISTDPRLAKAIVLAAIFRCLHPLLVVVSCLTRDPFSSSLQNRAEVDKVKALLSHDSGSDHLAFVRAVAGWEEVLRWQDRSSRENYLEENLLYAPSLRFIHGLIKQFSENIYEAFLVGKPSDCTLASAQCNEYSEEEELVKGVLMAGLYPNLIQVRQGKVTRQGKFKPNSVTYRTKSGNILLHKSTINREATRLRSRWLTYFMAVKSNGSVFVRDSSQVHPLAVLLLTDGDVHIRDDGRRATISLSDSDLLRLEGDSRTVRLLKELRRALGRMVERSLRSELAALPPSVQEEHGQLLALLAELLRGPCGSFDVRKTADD

Active and inactive are the calls of the source.
Also: in the data inactive means no Kd found up to 30 µM.

Chain of Serine/threonine-protein kinase ATR (Q13535 whole entry): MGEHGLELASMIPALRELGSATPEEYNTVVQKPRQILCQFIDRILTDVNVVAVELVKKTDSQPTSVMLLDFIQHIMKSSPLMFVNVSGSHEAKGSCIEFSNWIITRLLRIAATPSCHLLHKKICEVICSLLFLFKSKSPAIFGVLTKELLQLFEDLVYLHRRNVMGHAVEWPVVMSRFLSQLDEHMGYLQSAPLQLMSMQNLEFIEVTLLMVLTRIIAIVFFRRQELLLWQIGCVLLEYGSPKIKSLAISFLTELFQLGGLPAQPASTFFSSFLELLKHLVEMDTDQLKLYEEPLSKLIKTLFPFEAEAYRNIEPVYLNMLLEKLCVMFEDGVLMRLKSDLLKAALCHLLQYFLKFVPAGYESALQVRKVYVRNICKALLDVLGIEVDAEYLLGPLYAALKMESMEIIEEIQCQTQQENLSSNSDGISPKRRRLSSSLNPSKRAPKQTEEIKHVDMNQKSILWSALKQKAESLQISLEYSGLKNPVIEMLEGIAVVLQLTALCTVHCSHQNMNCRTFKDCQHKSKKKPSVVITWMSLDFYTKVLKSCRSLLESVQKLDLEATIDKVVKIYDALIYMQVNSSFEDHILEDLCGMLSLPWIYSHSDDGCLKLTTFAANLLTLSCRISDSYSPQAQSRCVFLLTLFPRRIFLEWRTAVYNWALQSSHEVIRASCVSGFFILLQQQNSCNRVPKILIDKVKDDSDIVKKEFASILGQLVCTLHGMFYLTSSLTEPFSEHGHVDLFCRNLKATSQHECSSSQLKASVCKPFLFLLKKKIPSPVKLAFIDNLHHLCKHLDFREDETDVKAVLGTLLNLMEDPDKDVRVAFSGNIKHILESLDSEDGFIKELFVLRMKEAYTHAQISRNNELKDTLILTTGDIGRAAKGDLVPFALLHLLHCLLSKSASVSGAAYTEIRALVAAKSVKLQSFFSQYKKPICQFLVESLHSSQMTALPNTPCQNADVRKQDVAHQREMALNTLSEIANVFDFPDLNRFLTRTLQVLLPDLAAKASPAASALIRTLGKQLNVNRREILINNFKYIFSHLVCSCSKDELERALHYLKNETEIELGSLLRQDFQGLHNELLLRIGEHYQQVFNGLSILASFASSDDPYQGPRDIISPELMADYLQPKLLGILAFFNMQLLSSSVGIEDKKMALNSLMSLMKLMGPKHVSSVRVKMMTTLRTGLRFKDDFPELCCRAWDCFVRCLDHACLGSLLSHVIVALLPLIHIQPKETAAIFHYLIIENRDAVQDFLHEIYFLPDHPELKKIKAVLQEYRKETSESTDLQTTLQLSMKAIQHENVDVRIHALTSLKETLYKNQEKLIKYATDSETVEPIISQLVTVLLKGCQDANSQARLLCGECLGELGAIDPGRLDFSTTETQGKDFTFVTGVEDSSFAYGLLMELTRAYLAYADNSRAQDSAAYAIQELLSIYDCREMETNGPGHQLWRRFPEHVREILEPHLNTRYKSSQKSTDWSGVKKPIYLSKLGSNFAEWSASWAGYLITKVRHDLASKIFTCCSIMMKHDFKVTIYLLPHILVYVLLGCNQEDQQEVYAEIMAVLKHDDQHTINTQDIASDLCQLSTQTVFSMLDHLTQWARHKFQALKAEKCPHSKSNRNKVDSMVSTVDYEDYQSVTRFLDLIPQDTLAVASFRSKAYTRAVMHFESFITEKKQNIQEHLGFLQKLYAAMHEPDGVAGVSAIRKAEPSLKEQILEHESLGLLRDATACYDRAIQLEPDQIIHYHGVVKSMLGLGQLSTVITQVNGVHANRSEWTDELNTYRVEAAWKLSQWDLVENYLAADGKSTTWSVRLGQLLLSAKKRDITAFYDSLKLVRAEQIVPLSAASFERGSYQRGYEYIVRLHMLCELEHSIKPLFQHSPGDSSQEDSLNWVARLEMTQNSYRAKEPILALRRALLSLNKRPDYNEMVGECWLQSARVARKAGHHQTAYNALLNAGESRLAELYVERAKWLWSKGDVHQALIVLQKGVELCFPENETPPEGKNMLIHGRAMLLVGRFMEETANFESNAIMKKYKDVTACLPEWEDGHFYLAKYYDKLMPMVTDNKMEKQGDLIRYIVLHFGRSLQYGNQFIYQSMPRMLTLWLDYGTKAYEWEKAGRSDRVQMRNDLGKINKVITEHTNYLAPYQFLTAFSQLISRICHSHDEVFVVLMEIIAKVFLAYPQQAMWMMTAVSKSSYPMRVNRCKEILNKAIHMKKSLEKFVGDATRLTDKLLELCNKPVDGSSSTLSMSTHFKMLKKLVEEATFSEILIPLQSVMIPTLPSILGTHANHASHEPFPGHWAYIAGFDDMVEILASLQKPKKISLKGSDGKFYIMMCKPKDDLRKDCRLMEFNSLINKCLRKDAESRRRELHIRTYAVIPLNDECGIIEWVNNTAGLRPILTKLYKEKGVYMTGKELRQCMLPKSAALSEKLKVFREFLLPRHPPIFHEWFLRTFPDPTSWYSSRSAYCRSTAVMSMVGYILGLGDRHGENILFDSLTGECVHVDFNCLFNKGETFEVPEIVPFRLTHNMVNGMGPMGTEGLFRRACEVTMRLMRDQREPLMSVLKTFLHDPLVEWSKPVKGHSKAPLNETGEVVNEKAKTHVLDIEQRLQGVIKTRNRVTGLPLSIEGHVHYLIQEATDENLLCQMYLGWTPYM
Chain of High affinity nerve growth factor receptor (P04629 whole entry): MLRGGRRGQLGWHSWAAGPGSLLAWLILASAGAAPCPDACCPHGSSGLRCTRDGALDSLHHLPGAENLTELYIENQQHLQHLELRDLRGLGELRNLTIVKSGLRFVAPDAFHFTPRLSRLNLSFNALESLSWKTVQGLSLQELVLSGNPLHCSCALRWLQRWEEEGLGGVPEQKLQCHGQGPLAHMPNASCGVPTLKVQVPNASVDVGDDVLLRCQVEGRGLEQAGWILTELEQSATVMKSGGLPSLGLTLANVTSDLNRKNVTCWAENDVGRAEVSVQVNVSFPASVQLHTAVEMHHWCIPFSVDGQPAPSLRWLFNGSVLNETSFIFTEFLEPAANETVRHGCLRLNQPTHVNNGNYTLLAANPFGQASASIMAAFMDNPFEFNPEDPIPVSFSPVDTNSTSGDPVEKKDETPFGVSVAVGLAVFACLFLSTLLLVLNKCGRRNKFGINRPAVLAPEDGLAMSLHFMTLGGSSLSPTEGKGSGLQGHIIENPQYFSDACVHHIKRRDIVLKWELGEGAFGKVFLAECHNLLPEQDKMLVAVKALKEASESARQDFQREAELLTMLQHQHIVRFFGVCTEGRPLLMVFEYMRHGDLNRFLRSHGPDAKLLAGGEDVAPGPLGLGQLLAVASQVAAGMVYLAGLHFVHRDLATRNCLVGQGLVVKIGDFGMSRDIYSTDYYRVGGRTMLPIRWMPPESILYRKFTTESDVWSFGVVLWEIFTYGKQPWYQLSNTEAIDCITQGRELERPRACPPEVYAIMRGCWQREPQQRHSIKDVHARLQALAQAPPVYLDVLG
Chain of Hepatocyte growth factor receptor (P08581 whole entry): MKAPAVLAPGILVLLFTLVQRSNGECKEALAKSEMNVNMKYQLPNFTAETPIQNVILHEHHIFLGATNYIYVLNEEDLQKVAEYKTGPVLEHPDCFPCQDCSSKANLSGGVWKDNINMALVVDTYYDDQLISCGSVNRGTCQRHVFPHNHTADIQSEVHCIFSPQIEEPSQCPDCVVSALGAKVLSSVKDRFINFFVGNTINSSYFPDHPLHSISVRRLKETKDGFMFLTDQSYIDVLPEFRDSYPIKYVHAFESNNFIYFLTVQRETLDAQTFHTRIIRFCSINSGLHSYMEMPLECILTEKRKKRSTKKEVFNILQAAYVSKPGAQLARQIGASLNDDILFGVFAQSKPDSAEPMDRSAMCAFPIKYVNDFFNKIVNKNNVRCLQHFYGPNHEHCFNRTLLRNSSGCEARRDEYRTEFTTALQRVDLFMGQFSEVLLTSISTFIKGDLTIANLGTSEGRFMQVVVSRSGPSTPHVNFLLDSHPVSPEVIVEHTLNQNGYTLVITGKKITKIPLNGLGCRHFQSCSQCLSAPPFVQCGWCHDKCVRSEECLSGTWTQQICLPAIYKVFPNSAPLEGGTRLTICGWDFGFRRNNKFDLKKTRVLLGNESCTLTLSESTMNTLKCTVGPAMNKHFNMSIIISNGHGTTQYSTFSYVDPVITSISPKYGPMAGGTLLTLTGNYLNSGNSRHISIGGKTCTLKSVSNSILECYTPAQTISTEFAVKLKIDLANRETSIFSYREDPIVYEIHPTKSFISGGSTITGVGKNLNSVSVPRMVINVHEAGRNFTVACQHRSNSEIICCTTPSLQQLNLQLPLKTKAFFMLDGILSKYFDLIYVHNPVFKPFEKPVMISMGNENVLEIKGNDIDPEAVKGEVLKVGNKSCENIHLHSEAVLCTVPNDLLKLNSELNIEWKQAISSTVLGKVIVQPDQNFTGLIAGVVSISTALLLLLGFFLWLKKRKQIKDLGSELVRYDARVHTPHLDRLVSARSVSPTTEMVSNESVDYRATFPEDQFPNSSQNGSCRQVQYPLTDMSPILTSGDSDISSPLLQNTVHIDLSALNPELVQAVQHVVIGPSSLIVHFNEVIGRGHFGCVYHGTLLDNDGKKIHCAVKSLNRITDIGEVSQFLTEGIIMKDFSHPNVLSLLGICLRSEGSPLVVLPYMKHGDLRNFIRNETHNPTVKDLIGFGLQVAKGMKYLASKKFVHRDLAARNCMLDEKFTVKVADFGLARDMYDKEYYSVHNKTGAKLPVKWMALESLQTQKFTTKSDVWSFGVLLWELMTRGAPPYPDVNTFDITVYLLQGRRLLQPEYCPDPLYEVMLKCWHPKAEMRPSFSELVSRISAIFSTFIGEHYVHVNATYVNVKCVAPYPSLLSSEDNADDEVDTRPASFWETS

Regarding `C[C@@H](Nc1cc(F)cc(F)c1)c1cc(C(=O)N(C)C)cc2c(=O)cc(N3CCOCC3)oc12` [AZD-8186], the Kd in experiment [1], in experiment [2], in experiment [3], in experiment [4] and in experiment [5] was > 30 µM (inactive) in each case.
Turning to `COc1cc(OC)c(/C=C/S(=O)(=O)Cc2ccc(OC)c(NCC(=O)O)c2)c(OC)c1` [RIGOSERTIB], the dissociation constant (Kd) in experiment [1] is 0.94 µM (active); in experiment [2], > 30 µM (inactive); in experiment [3], > 30 µM (inactive); in experiment [4], > 30 µM (inactive); in experiment [5] it was > 30 µM (inactive); in experiment [6], > 30 µM (inactive).
`CC[C@H](Nc1ncnc2[nH]cnc12)c1nc2cccc(F)c2c(=O)n1-c1ccccc1` [IDELALISIB]: the Kd in experiment [2], in experiment [3], in experiment [4], in experiment [5] and in experiment [6] was > 30 µM (inactive) throughout.
In the case of `C[C@@H](c1ccc2nccn2c1)n1nnc2ncc(-c3cnn(C)c3)nc21` [SAVOLITINIB], the Kd in experiment [3] and in experiment [4] was > 30 µM (inactive) throughout.
As to `Cc1ccc(S(=O)(=O)Nc2nc3ccccc3nc2Nc2ccc3nsnc3c2)cc1`, the Kd in experiment [2], in experiment [3], in experiment [4], in experiment [5] and in experiment [6] was > 30 µM (inactive) throughout.
For the compound `CCS(=O)(=O)N1CC(CC#N)(n2cc(-c3ncnc4[nH]ccc34)cn2)C1` [BARICITINIB], the Kd in experiment [1], in experiment [3], in experiment [4] and in experiment [6] was > 30 µM (inactive) each time.
As to `Cc1ccc(NC(=O)c2ccc(CN3CC[C@H](N(C)C)C3)c(C(F)(F)F)c2)cc1Nc1nccc(-c2cncnc2)n1` [BAFETINIB], the Kd in experiment [1], in experiment [2], in experiment [3], in experiment [4] and in experiment [5] was > 30 µM (inactive) each time.
On to `Nc1nc(N)c2nc(-c3cccc(O)c3)c(-c3cccc(O)c3)nc2n1` [TG100-115], for which the Kd in experiment [3] and in experiment [6] was > 30 µM (inactive) in each case.
As to `COc1ccc(-c2ccc3c(N4CCOC[C@@H]4C)nc(N4CCOC[C@@H]4C)nc3n2)cc1CO` [AZD-8055], the Kd in experiment [1], in experiment [3], in experiment [4], in experiment [5] and in experiment [6] was > 30 µM (inactive) throughout.
Consider `COc1cc2nccc(Oc3ccc(NC(=O)Nc4cc(C)on4)c(Cl)c3)c2cc1OC` [TIVOZANIB], for which the Kd in experiment [2], in experiment [3] and in experiment [4] was > 30 µM (inactive) each time.
Take `COc1cc(N2CCC(N3CCN(C)CC3)CC2)ccc1Nc1ncnc(Nc2ccccc2S(=O)(=O)C(C)C)n1` [ASP-3026]: the Kd in experiment [1], in experiment [2], in experiment [3], in experiment [4] and in experiment [5] was > 30 µM (inactive) throughout.
Regarding `CCc1cnn2c(NCc3ccc[n+]([O-])c3)cc(N3CCCC[C@H]3CCO)nc12` [DINACICLIB], the Kd in experiment [2], in experiment [3] and in experiment [4] was > 30 µM (inactive) each time.
As for `OCCn1cc(-c2cnc3nnn(Cc4ccc5ncccc5c4)c3n2)cn1` [PF-04217903], the Kd in experiment [2], in experiment [3], in experiment [4] and in experiment [6] was > 30 µM (inactive) throughout.
As for `CCCS(=O)(=O)Nc1ccc(F)c(C(=O)c2c[nH]c3ncc(-c4ccc(Cl)cc4)cc23)c1F` [VEMURAFENIB], the Kd in experiment [1], in experiment [3] and in experiment [5] was > 30 µM (inactive) each time.
With `Cc1cc([C@@H](C)Nc2ccccc2C(=O)O)c2nc(N3CCOCC3)cc(=O)n2c1` [AZD-6482], the Kd in experiment [1], in experiment [3], in experiment [4], in experiment [5] and in experiment [6] was > 30 µM (inactive) throughout.
Turning to `CNC(=O)c1ccc(-c2cnc3ncc(Cc4ccc5ncccc5c4)n3n2)cc1F` [CAPMATINIB], the Kd was 2.04 µM in experiment [2]; > 30 µM (inactive) in experiment [3]; > 30 µM (inactive) in experiment [4]; > 30 µM (inactive) in experiment [5]; > 30 µM (inactive) in experiment [6].
`CN1CC[C@@H](c2c(O)cc(O)c3c(=O)cc(-c4ccccc4Cl)oc23)[C@@H]1CO`: the Kd in experiment [1] is 6.67 µM; in experiment [2] it was 0.024 µM; in experiment [4] it was > 30 µM (inactive); in experiment [5], > 30 µM (inactive); in experiment [6], > 30 µM (inactive).
In the case of `CCN1CCN(Cc2ccc(-c3cc4c(N[C@H](C)c5ccccc5)ncnc4[nH]3)cc2)CC1` [AEE-788], the Kd in experiment [1], in experiment [3], in experiment [4], in experiment [5] and in experiment [6] was > 30 µM (inactive) throughout.
Turning to `CN1CCC(COc2cnc(-c3cccc(Cn4nc(-c5cccc(C#N)c5)ccc4=O)c3)nc2)CC1` [TEPOTINIB], the Kd in experiment [3], in experiment [4], in experiment [5] and in experiment [6] was > 30 µM (inactive) each time.
Consider `Cc1cc2c(F)c(Oc3ncnn4cc(OC[C@@H](C)OC(=O)[C@H](C)N)c(C)c34)ccc2[nH]1` [BRIVANIB ALANINATE], for which the Kd in experiment [1], in experiment [2], in experiment [4], in experiment [5] and in experiment [6] was > 30 µM (inactive) in each case.
`COC(=O)N[C@@H](C)CNc1nccc(-c2cn(C(C)C)nc2-c2cc(Cl)cc(NS(C)(=O)=O)c2F)n1` [ENCORAFENIB]: the Kd in experiment [1], in experiment [2], in experiment [3], in experiment [5] and in experiment [6] was > 30 µM (inactive) in each case.
`C=CC(=O)N1CCC(Oc2cc3c(Nc4ccc(Cl)c(Cl)c4F)ncnc3cc2OC)CC1` [POZIOTINIB]: the Kd in experiment [1] is 0.794 µM; in experiment [2], > 30 µM (inactive); in experiment [4], > 30 µM (inactive); in experiment [5], > 30 µM (inactive); in experiment [6], > 30 µM (inactive).

For the origin of these results see ChEMBL document CHEMBL3991601, “The target landscape of clinical kinase drugs” (Science, 2017).
